Measurements published in US20250114326A1, “POLAR MARINE-DERIVED MACROCYCLIC LACTAM COMPOUND, AND PREPARATION METHOD THEREFOR AND USE THEREOF” (RENJI HOSPITAL, SCHOOL OF MEDICINE, SHANGHAI JIAO TONG …, priority 2021, published 2025).
Where two headings read alike, the source gives them in different places.

Test system: inflammatory cytokine IL-6
Experiment: Inhibition of cytokine IL-6 in PMA-differentiated, LPS-treated THP-1 cells (Cytometric Bead Array, flow cytometry)
Format: cell-based, human
Details: PMA 160 nM 36 h, compound 2 h then LPS 24 h, IL-6 in culture solution by CBA, read-out: Half maximal inhibitory concentration (IC50) value on inflammatory cytokine IL-6
Description: Culture of THP-1 cells and treatment of THP-1 cells with test compounds in combination with LPS
THP-1 cells (from the Cell Bank of the Chinese Academy of Sciences) were cultured in RPMI-1640 medium containing 10% FBS in a 5% CO2 incubator at 37° C. 100 μL of a cell suspension in a complete culture medium containing antibiotics (100 μg/mL streptomycin and 100 U/mL penicillin) and PMA (final concentration: 160 nM) was added to each well in a 96-well plate (about 5×10^4 cells/well). After 36 h of treatment, the cells achieved adherent growth.
The PMA-containing medium was discarded and then the cells were washed with 1×PBS solution. Serum-free RPMI-1640 (2 mL) was added and the cells were treated for 12 h. The active compounds to be tested were diluted into five concentration gradients and added to each well for a 2-hour treatment. The culture solutions containing the compounds were retained and the cells were treated with a serum-free medium ([…]) containing LPS (1 mg/mL) for 24 h.
The content assay for cytokine IL-6 in the culture solution was performed according to the Human Inflammation Cytometric Bead Array (CBA) method in the manufacturer's instructions. After the above-mentioned cytokine levels were determined on the FACSCalibur flow cytometer, the FCAP Array software was used to analyze the results.

Row | IC50 (listed as control drug) [µM] | IC50 [µM] | IC50 (Homo sapiens) [µM] | Molecule
1 | 6.02 ± 0.12 | 9.22 ± 0.12 |  | Tocilizumab [reference compound]
2 |  |  | 5.76 ± 1.18 | CC[C@H](C)C[C@@]1(O)C(=O)NC[C@H](O)[C@@H](OC)C(=O)O[C@H](CO)C/C=C(\C)[C@@H]2C(C)=C[C@@]3(C)O[C@@H]4C[C@@]1(O)O[C@]4(C)[C@@H]23 [Compound 3, Somalactam C]
3 |  |  | 10.54 ± 0.06 | CC[C@H](C)C[C@]1(O)C(=O)C[C@@H](O)[C@@]2(C)C=C(C)[C@H](O2)/C(C)=C/C(C)=C/C[C@@H](CO)OC(=O)[C@H](OC)[C@@H](O)CNC1=O [Compound 1, Somalactam A]
4 |  |  | 9.12 ± 0.15 | CC[C@H](C)C[C@@]1(O)C(=O)NC[C@H](O)[C@@H](OC)C(=O)O[C@@H]2CO[C@]3(C)C=C(C)[C@@H](/C(C)=C/[C@@]4(C)O[C@]1(O)C[C@H]4O)[C@@H]3C2 [Compound 4, Somalactam D]
5 |  |  | 11.1 ± 0.13 | CC[C@H](C)C[C@@]1(O)C(=O)NC[C@H](O)[C@@H](OC)C(=O)OC[C@@H](O)C/C=C(\C)[C@H]2C(C)=C[C@]3(C)O[C@@H]4C[C@@]1(O)O[C@]4(C)[C@H]23 [Compound 2, Somalactam B]
